According to PMC12040169 (PLOS Biology, 2025):

Test: in vitro
Conditions: human, hela cells, % viability

First: Cc1cc(C(=O)NCCCN(C)C)ccc1[N+](=O)[O-] [CBK262467]
Second: Cc1nonc1CN(C)C(=O)c1ccc2c(c1)c(C)c(C)n2C [CBK281442]
The viability at 28.5 h, 10 µM of the first is higher: 90.8% for the first, 56.1% for the second.

Going from `CCOC(=O)c1cnc2ccc(Cl)cc2c1NC` [CBK307605] to `CCCCOc1ccc(-c2nnn(C(C)C(=O)OCC)n2)cc1` (stereo not drawn) [CBK068558], the viability at 28.5 h, 10 µM rises from 71.1% to 88.6%.

Going from `c1ccc(OCCSc2cc(N3CCCC3)ncn2)cc1` [CBK103689] to `COCc1nnc(Sc2cc(N3CCCC3)ncn2)s1` [CBK093746], the viability at 28.5 h, 10 µM falls from 113% to 88.4%.

Going from `NC(=O)C1(N2CCCCC2)CCN(C(=S)NC2CCCC2)CC1` [CBK091884] to `CC(C)N1CCCC[C@H]2CN(C(=O)C3OCCc4ccccc43)C[C@H]21` (stereo partly drawn) [CBK285511], the viability at 28.5 h, 10 µM rises from 88.1% to 104%.

Compared with `Cn1nc(-c2cccs2)cc1[C@H]1CN2CC[C@H]1C[C@@H]2CNC(=O)c1ccco1` [CBK289100], `O=C(CC1CCCC1)NCCn1nc(-c2cccs2)oc1=O` [CBK282386] is higher in viability at 28.5 h, 10 µM: 86.6% for the first, 87.2% for the second.

Going from `O=C(CN(c1ccccc1)S(=O)(=O)c1ccccc1)N1CCN(Cc2ccc3c(c2)OCO3)CC1` [CBK265290] to `O=C(c1sc2cc(Cl)ccc2c1Cl)N1CCN(Cc2ccc3c(c2)OCO3)CC1` [CBK074431], the viability at 28.5 h, 10 µM rises from 90% to 101%.

Compared with `OC1CCC(Nc2cncc(-c3cccc4ccccc34)n2)CC1` (stereo not drawn) [CBK065902], `O=C(c1cccnc1)N1CCc2ccccc21` [CBK200279] is higher in viability at 28.5 h, 10 µM: 90.2% for the first, 121% for the second.

First: NC(=O)NS(=O)(=O)c1ccc(NC(=S)NC(=O)c2ccco2)cc1 [CBK261068]
Second: CC(=O)Nc1ccc(S(=O)(=O)c2cc(O)ccc2O)cc1 [CBK261372]
The viability at 28.5 h, 10 µM of the first is higher: 117% for the first, 85.9% for the second.

Compared with `O=C(C1=C(O)C(=O)N(CCCn2ccnc2)C1c1cccs1)c1ccc2c(c1)OCCO2` (stereo not drawn) [CBK266170], `CN(C)CCN1C(=O)C(O)=C(C(=O)c2ccc(S(=O)(=O)N3CCOCC3)cc2)C1c1ccccc1` (stereo not drawn) [CBK264668] is higher in viability at 28.5 h, 10 µM: 92% for the first, 100% for the second.

First: NCC(O)CNC(=O)c1cc(-c2ccc(Cl)cc2)[nH]n1 (stereo not drawn) [CBK160977]
Second: O=C(CC(C(=O)O)c1c[nH]c2ccccc12)c1ccc(Cl)cc1 (stereo not drawn) [CBK286620]
The viability at 28.5 h, 10 µM of the first is higher: 87% for the first, 86.7% for the second.

First: CN1CCN(c2ccc([N+](=O)[O-])c(NCc3ccccc3)c2)CC1 [CBK042199]
Second: O=C(CN1CCN(c2ccccc2)CC1)Nc1ccc([N+](=O)[O-])cc1C(=O)c1ccccc1 [CBK265799]
The viability at 28.5 h, 10 µM of the first is higher: 93.7% for the first, 89.6% for the second.

Going from `O=C(NCc1cccc(C(F)(F)F)c1)N1CCN(c2cc(C(F)(F)F)ccn2)CC1` [CBK156435] to `C[C@@H]1CNCCN1c1cc(C(F)(F)F)cc(OCc2ccccc2)n1` [CBK026755], the viability at 28.5 h, 10 µM falls from 102% to 79.1%.

Going from `COc1cc(C(=O)N2CCC3(CC2)CC(=O)c2cc(CN4CCN(C)CC4)ccc2O3)cc(OC)c1C` [CBK169185] to `COc1cc(C2C(C(=O)c3cccs3)=C(O)C(=O)N2Cc2cccnc2)cc(OC)c1OC` (stereo not drawn) [CBK264874], the viability at 28.5 h, 10 µM falls from 94.6% to 92.8%.

Compared with `CC(NC(=O)N1CCCN(Cc2cccs2)CC1)c1nncn1C` (stereo not drawn) [CBK305322], `CCc1nn2c(=O)cc(CN3CCN(C(=O)c4cccs4)CC3)nc2s1` [CBK306474] is higher in viability at 28.5 h, 10 µM: 80.3% for the first, 108% for the second.

Compared with `CCCn1c(C(=O)Nc2cccnc2)cc2c(=O)n(C)c(=O)n(C)c21` [CBK287838], `CCCC(=O)Nc1ccc(-c2csc(N3CCN(C)CC3)n2)cc1` [CBK305025] is higher in viability at 28.5 h, 10 µM: 90.8% for the first, 103% for the second.

Compared with `CC(Cc1nc(C2(Cl)CC2)cs1)n1cc(Cl)cn1` (stereo not drawn) [CBK304715], `Cc1nc2c(c(N(C)C)n1)CCN(C(=O)c1cnn(C(C)C)c1)C2` [CBK307083] is higher in viability at 28.5 h, 10 µM: 85.5% for the first, 109% for the second.

First: O=C(NCCN1CCc2ccccc21)C1CC2C=CC1O2 (stereo not drawn) [CBK283158]
Second: CSCCCNC(=O)C1(c2ccccc2)CCCC1 [CBK149526]
The viability at 28.5 h, 10 µM of the first is lower: 96.2% for the first, 109% for the second.

Compared with `O=[N+]([O-])c1ccc(N2CCCCC2)s1` [CBK016566], `Cc1nc(CC(=O)N2CCC[C@@H]3NC(=O)c4ccccc4OCCCCC[C@@H]32)cs1` [CBK292113] is lower in viability at 28.5 h, 10 µM: 104% for the first, 102% for the second.

Going from `COc1ccccc1C(C)CN(C)C` (stereo not drawn) [CBK011948C] to `COc1ccc(OC)c(-c2nc(Nc3ccccc3Cl)sc2CC(=O)O)c1` [CBK264190], the viability at 28.5 h, 10 µM rises from 91.2% to 96.4%.

Compared with `COc1ccc(Cl)cc1NC(=O)CN(c1ccccc1)S(=O)(=O)c1ccc(Cl)cc1` [CBK265261], `COc1ccccc1-c1ccc(NS(=O)(=O)c2ccc3c(c2)CCC(=O)N3)cc1` [CBK286353] is lower in viability at 28.5 h, 10 µM: 105% for the first, 82.5% for the second.

Compared with `CC(C)c1ccc(S(=O)(=O)Nc2cc(F)c(F)c(F)c2)cc1` [CBK045028], `Cc1nnc(-c2cccc(S(=O)(=O)Nc3nnc(C(F)(F)F)s3)c2)o1` [CBK062014] is lower in viability at 28.5 h, 10 µM: 104% for the first, 99.1% for the second.

Going from `O=C(/C=C/c1cccc([N+](=O)[O-])c1)Nc1ccc(O)cc1C(=O)O` [CBK263615] to `Cc1ccc2nc(SCc3cccc([N+](=O)[O-])c3)nc(C)c2c1` [CBK264370], the viability at 28.5 h, 10 µM rises from 87.3% to 106%.

Going from `Fc1ccc(CCN2CCC(Oc3cncc(OCc4cccnc4)n3)C2)cc1` (stereo not drawn) [CBK084469] to `O=C(c1ccco1)N1CCN(Cc2nc3ccccc3c(=O)n2-c2ccc(F)cc2)CC1` [CBK267226], the viability at 28.5 h, 10 µM falls from 97.8% to 94.3%.

Going from `Cc1c(-n2nnnc2SC(C)c2ccccc2)c(=O)n(-c2ccccc2)n1C` (stereo not drawn) [CBK295651] to `O=C1c2ccccc2C(=O)N1CSc1nnc(SCN2C(=O)c3ccccc3C2=O)s1` [CBK263694], the viability at 28.5 h, 10 µM rises from 92.9% to 96.9%.

Going from `c1ccc2oc(CN3Cc4nc[nH]c4C[C@H]3c3nc(-c4ccc5c(c4)OCO5)no3)cc2c1` [CBK288998] to `Nc1ccc(-c2cccc(C(F)(F)F)c2)c2ccccc12` [CBK084324], the viability at 28.5 h, 10 µM falls from 81.5% to 80%.

Compared with `CC(c1ncc(Br)cn1)N1CCN(Cc2noc(C(C)(C)C)n2)CC1` (stereo not drawn) [CBK306168], `CC(C)[C@@H](CO)Nc1nc(-c2cncnc2)cnc1N` [CBK063735] is higher in viability at 28.5 h, 10 µM: 87.4% for the first, 99.4% for the second.

Compared with `CCOc1ccc(C2CCCN2S(=O)(=O)c2c[nH]c(=O)[nH]c2=O)cc1` (stereo not drawn) [CBK285806], `Cn1ncc2c1CCCN(C(=O)Cc1ccc(Cl)cc1)C2` [CBK285231] is higher in viability at 28.5 h, 10 µM: 92.6% for the first, 106% for the second.

Going from `CC1CCc2n[nH]c(C(=O)NCCCC3CCOC3)c2C1` (stereo not drawn) [CBK283212] to `C=CCNC(=O)C[C@@H]1CCN(C(=O)c2ccnc(Cl)c2)C[C@@H]1CC` [CBK289136], the viability at 28.5 h, 10 µM falls from 102% to 94.3%.

Going from `COCCN1C(=O)C2(CC(=O)N(CCc3scnc3C)C2=O)c2cc(Cl)ccc21` (stereo not drawn) [CBK075321] to `CCc1nc2ccc(C(=O)NCCNC(C)=O)cn2c1N(C)Cc1ccc(NC(C)=O)cc1` [CBK145612], the viability at 28.5 h, 10 µM falls from 93.6% to 87.4%.

Compared with `CSCCC(=O)N1CCCC2(CCN(C(=O)c3cc(F)c(F)cc3F)C2)C1` (stereo not drawn) [CBK131557], `O=C(NCCc1cccs1)Nc1cccc(SC(F)(F)F)c1` [CBK044999] is higher in viability at 28.5 h, 10 µM: 93.7% for the first, 95% for the second.

For `O=C(NCCO)/C(=C\c1ccccc1)NC(=O)c1ccc(I)cc1` [CBK265162], the viability at 28.5 h, 10 µM was 89.2%.

Same assay, conditions: human, hela cells, % viability, bulk resorufin, single well

Compared with `CCOC(=O)C1(c2ccccc2)CCN(C(=O)COc2ccccc2OC)CC1` [CBK132183], `Oc1ccc(CN2CCN(c3cccc(Cl)c3)CC2)cc1` [CBK261528] is higher in viability at 28.5 h, 10 µM: 87.1% for the first, 109% for the second.
